Source: patent US11033524B2, “Methods and compositions for treating disorders associated with cortico-hippocampal hyperactivity” (RAMOT AT TEL-AVIV UNIVERSITY LTD., priority 2016, dated 2021)
Entries after “also recorded” stand apart in the source; their conditions may differ.

Assays:
hippocampal cultures [1] = assay: firing rate homeostasis: baclofen perturbation in MEA cultures; assay type: cell-based
Protocol: The stable reduction in MFR induced by teriflunomide could have been the result of either impairment of homeostatic compensation mechanisms, or a change in a firing set-point value. A perturbation of firing rate in vivo results in re-normalization to its set-point level 2 days following perturbation through homeostatic mechanisms (Hengen et al., 2013). […] In order to determine the role DHODH inhibition in homeostatic process, we added 10 μM baclofen following 12 hr incubation with teriflunomide (FIG. 7).

hippocampal cultures [2] = conditions: returns to baseline level after 2 days (Slomowitz et al., 2015); cited from earlier work
hippocampus = conditions: low-dose, MCI patients (Bakker et al., 2012); cited from earlier work
AD mouse models = AD mouse models (Sanchez et al., 2012); cited from earlier work
[3] = tested on: cultured hippocampal neurons; assay: multi-electrode array (MEA) recording of spiking activity / mean firing rate; assay type: cell-based; conditions: for effect of teriflunomide on MFR in DHODH knockdown cultures: 50 μM teriflunomide in shDHODH-infected cultures
Excerpt: In order to test how DHODH targeting affects neuronal activity, we examined the effect of the DHODH inhibitor teriflunomide on cultured hippocampal neurons grown on a multi-electrode chip (MEA) that allows a long-term monitoring of spiking activity from many neurons simultaneously (FIGS. 1A-1C).
In order to test the specificity of teriflunomide effect on firing rate, we used a lentiviral-based shRNA delivery system (shDHODH; TRCN0000294665, Sigma Aldrich) to knockdown DHODH expression in hippocampal cultures.
In order to test whether the change in MFR resulting from DHODH inhibition is induced by the reduction of available uridine (a precursor of pyrimidines) or results from a change in the mitochondrial function, we co-applied 100 μM uridine mono-phosphate with teriflunomide in MEA recordings.

hippocampal neurons [4] = assay: intrinsic excitability: action potentials evoked by somatic current injections (F-I curves); assay type: cell-based; conditions: teriflunomide incubation
Protocol: Modulation of intrinsic excitability is an important facet of neuronal adaptation. In this experiment we elicited action potentials (APs) in response to increasing somatic current injections ranging from 0 to +500 pA (F-I curves) in the presence of postsynaptic receptor blockers (FIGS. 3A-3B). As found, teriflunomide induced a reduction in the maximal firing frequency from 31.4±2.29 Hz to 17.2±3.34 after 4 hr of incubation, and to 16.25±3.06 Hz after 2 days of incubation (FIGS. 3B-3C). Input resistance was not affected by teriflunomide application (FIGS. 3D-3E).

hippocampal neurons [5] = assay: inhibition-excitation (I/E) ratio from sEPSCs and sIPSCs (integrated conductances GE, GI); assay type: cell-based
Excerpt: The inhibition-excitation (I/E) ratio constitutes an important factor in firing rate homeostasis, and in pathology of epilepsy. To assess the effects of DHODH inhibition on the I/E ratio, the spontaneous excitatory and inhibitory postsynaptic currents (sEPSCs, sIPSCs, respectively) were isolated at the same cell based on the reversal potentials of α-amino-3-hydroxy-5-methyl-4-isoxazolepropionic acid receptor (AMPAR)-mediated excitatory and GABAAR-mediated inhibitory currents, and the integrated excitatory (FIG. 4A) and inhibitory conductance's (GE, GI, respectively) were calculated (FIGS. 4B-4D).

hippocampal neurons [6] = assay: mEPSC recording (excitatory quantal events); assay type: cell-based
Protocol: In this experiment we tested whether DHODH inhibition affects excitatory quantal events, by recording mEPSCs from hippocampal neurons under control conditions and 2 days following teriflunomide application (FIG. 5). As found, chronic teriflunomide incubation triggered a significant decrease of ˜26% in mEPSC amplitude (FIGS. 5A-5B).

[7] = tested on: pilocarpine-induced seizures; assay: pilocarpine model of TLE, behavioral seizure duration; assay type: in vivo; conditions: 15 mg/kg IP daily for 3 days, pilocarpine 330 mg/kg IP, C57 male mice, p=0.0157
Excerpt: In order to determine the potential therapeutic benefit of DHODH inhibition for epilepsy treatment, we used the pilocarpine model of TLE, which is one of the most common mouse models that recapitulates many aspects of the human pathology. The pilocarpine model of TLE appears to be highly isomorphic with the human disease including induction of acute status epilepticus, and latent period followed by the appearance of spontaneous recurrent seizures, as well as the occurrence of widespread lesions in the CNS (Curia et al., 2008). These features make it highly suitable for testing the efficacy of antiepileptic drugs (Leite et al., 2002). We performed intraperitoneal (IP) daily injections of teriflunomide (15 mg/kg) or vehicle for 3 days, in 6-week-old male mice of C57 background. On the third day, mice were injected subcutaneously (SC) with 2 mg/kg scopolamine to prevent peripheral effects, and 30 min later with 330 mg/kg pilocarpine IP. […] Because seizure duration correlates with hippocampal pathology in the pilocarpine model (Mazzuferi et al., 2012), these in vivo results emphasize the potential of DHODH inhibition as a therapeutic approach in the most common form of epilepsy.

[8] = tested on: CA3-CA1 synaptic transmission; assay: fEPSP recording in acute hippocampal slices
Excerpt: Having established an essential role of DHODH activity in regulating MFR and E/I balance in hippocampal cultures, we asked whether acute DHODH inhibition modulates basal synaptic transmission in a more intact preparation—acute hippocampal slices. We evoked electrical stimulation in CA3 axons, comprising the Schaffer Collateral (SC) pathway of the hippocampus, and recorded the extracellular field excitatory postsynaptic potentials (fEPSP) in the stratum radiatum. We estimated the effect of teriflunomide (50 μM) on basal CA3-CA1 synaptic transmission evoked by low frequency stimulation of 0.1 Hz.
Next, we examined how DHODH inhibition affects short-term synaptic plasticity evoked by high-frequency spike bursts. This type of plasticity plays an important role in working memory function.

[9] = tested on: CA3-CA1 hippocampal connections; assay: in vivo fEPSP recording after ICV injection; conditions: ICV 100 mM/1 μl daily for 3 days, bursts of 3 stimuli at 50 Hz, anesthetized mice
Protocol: Finally, we used intracerebroventricular (ICV) injection of teriflunomide to test its effect on hippocampal synaptic plasticity in vivo. For this, we injected teriflunomide (100 mM/1 μl daily) for 3 consecutive days and then performed electrophysiological fEPSP recording in vivo in anesthetized (2% isoflurane) mice. The recording electrodes were placed in the CA1 stratum radiatum, while the stimulating electrode was paced at the Schaffer Collateral fibers. We examined how inhibition of DHODH in the brain affects short-term synaptic plasticity in the hippocampus evoked by high-frequency spike bursts.

SMILES: NCC(CC(=O)O)c1ccc(Cl)cc1 (stereo not drawn) [baclofen]
- MFR acutely after baclofen (hippocampal cultures [1]; 10 μM baclofen added in the presence of teriflunomide): 0.3678±0.08 Hz
- MFR stabilized over a 2-day period after baclofen (hippocampal cultures [1]; 10 μM baclofen in the presence of teriflunomide, 48 h): 2.00±0.35 Hz
- firing rate after baclofen alone (hippocampal cultures [2]): profound inhibition

SMILES: CC[C@@H](C(N)=O)N1CCCC1=O [levetiracetam]
- memory (hippocampus): improvement
- metabolic hyperactivity in the hippocampus (hippocampus): reduces
- brain hyperactivity (AD mouse models): reduces
- cognitive impairments (AD mouse models): improves

SMILES: C/C(O)=C(\C#N)C(=O)Nc1ccc(C(F)(F)F)cc1 [teriflunomide, (2Z)-2-cyano-3-hydroxy-N-[4-(trifluoromethyl)phenyl]but-2-enamide]
- effect of teriflunomide on MFR in DHODH knockdown cultures [3]: did not produce long-term changes in MFR
- effect of teriflunomide on MFR in DHODH knockdown cultures ([3]; listed as Teriflunomide): did not have a significant effect
- neuronal mean firing rate (MFR) ([3]; 50 μM teriflunomide, after 4 h of application, baseline 3.95±0.27 Hz): 1.58±0.17 Hz
- stability of the lower MFR induced by teriflunomide ([3]; 50 μM teriflunomide, time following application): stable for 14 hr
- reduction in MFR with co-applied uridine ([3]; 100 μM uridine mono-phosphate co-applied with 50 μM teriflunomide, timescale of 2 days): does not occlude the reduction in maximum firing rate (MFR); also recorded: did not occlude the effect of teriflunomide on MFR; also recorded: did not occlude the reduction in MFR
- input resistance (Rin) (hippocampal neurons [4]): no change; also recorded: not affected
- I/E ratio (GI/GE per neuron) (hippocampal neurons [5]; 4 hr to 2 days of teriflunomide incubation): elevated and remained high; also recorded: significant and stable increase
- average integrated excitatory conductance (GE) (hippocampal neurons [5]; 2 days of teriflunomide incubation): remained lower for 2 days; also recorded: stable during 2 days of incubation
- average integrated excitatory conductance (GE) (hippocampal neurons [5]; after 4 hr of teriflunomide incubation): dramatic decrease
- integrated inhibitory conductance (GI) (hippocampal neurons [5]; after either 4 hr or 2 days of teriflunomide incubation): no significant change; also recorded: no significant reduction
- decrease in mEPSC amplitude (hippocampal neurons [6]; 2 days teriflunomide incubation vs control): 26%
- mEPSC frequency (hippocampal neurons [6]; 2 days teriflunomide incubation, p=0.08): not significantly affected; also recorded: did not reach statistical significance
- MFR, new lower baseline value (hippocampal cultures [1]; 12 hr (overnight) incubation with 50 μM teriflunomide, original baseline 4.30±0.0.44 Hz): 2.50±0.38 Hz
- behavioral seizure duration [7]: significantly reduces
- fEPSP amplitude (basal CA3-CA1 transmission) ([8]; 50 μM teriflunomide, 0.1 Hz stimulation): gradual reduction
- short-term synaptic facilitation (relative fEPSP amplitude within the burst) ([8]; bursts of 5 stimuli at 50 Hz, 30 min after teriflunomide): profoundly increased
- short-term synaptic facilitation in vivo [9]: increase
